Here are results for ten molecules from ChEMBL document CHEMBL1201862, “PubChem BioAssay data set” (2004).

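Each compound was tested at five concentrations against cells in 96-well plates for 48 hours. The concentration for 50% growth inhibition is given as GI50.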 Calls of active or inactive are those of the source. No stated cut-off is given here; in the data, active = GI50 up to about 1.1 µM and inactive = higher.

Among the test systems are UACC-62; IGROV-1; SF-539; HOP-62; NCI-H226; NCI-H23; MOLT-4; A498; CAKI-1; HCC 2998; NCI-H460; KM12; HCT-15; A549; HCT-116; K562; SF-268; RPMI-8226; SN12C; CCRF-CEM.
Common to all, as to test: NCI-60 cell line screen, 48 h

As for `O=C(O)c1cn2c3c(cc(N4CCN(CCO)CC4)cc3c1=O)SCC2`, the GI50 in the experiment on UACC-62 was > 78.2 µM (inactive); with IGROV-1, > 100 µM (inactive); with SF-539 it was 46.1 µM (inactive); with HOP-62, 48.4 µM (inactive); in the experiment with NCI-H226, 63.8 µM (inactive); in the experiment on NCI-H23 it was 57.5 µM (inactive). Moreover, the GI50 is 53.8 µM (inactive) in the experiment with MOLT-4; > 100 µM (inactive) with A498; > 100 µM (inactive) with CAKI-1; 33 µM (inactive) in the experiment on HCC 2998; > 95.7 µM (inactive) in the experiment on NCI-H460; > 76.9 µM (inactive) with KM12. The GI50 is above 100 µM in the experiment with HCT-15; > 100 µM (inactive) in the experiment on A549; > 100 µM (inactive) with HCT-116; 65.9 µM (inactive) in the experiment with K562; 47.3 µM (inactive) in the experiment with SF-268; > 100 µM (inactive) in the experiment on RPMI-8226. For the same molecule, the figures for the GI50 with SN12C and in the experiment on CCRF-CEM were 47.1 µM (inactive) and 48.8 µM (inactive), respectively.
Consider `Cc1ccc(C2=C(C#N)C(N)OC3=C2COc2ccccc23)cc1` (stereo unspecified), for which the GI50 in the experiment on UACC-62 is 78 µM (inactive); with IGROV-1, 57.8 µM (inactive); in the experiment with SF-539 it was 39.6 µM (inactive); in the experiment with HOP-62, 15.6 µM (inactive); in the experiment on NCI-H226, > 100 µM (inactive); with NCI-H23, 43.5 µM (inactive). In addition, the GI50 with MOLT-4 is 16.6 µM (inactive); with A498, 24.1 µM (inactive); in the experiment with HCC 2998, 41.6 µM (inactive); in the experiment with NCI-H460, 43.5 µM (inactive); in the experiment on KM12, > 100 µM (inactive); in the experiment on HCT-15 it was above 100 µM. The GI50 in the experiment with A549 is 31.4 µM (inactive); in the experiment on HCT-116, 31.9 µM (inactive); with K562, 80.7 µM (inactive); in the experiment on SF-268, 27 µM (inactive); in the experiment on RPMI-8226 it was > 100 µM (inactive); in the experiment with SN12C it was 18.6 µM (inactive). Further, the GI50 in the experiment on CCRF-CEM is 22.9 µM (inactive).
For `O=Cc1c(Cn2ccnc2)c2cc([N+](=O)[O-])ccc2n1Cc1ccccc1`, the GI50 is > 100 µM (inactive) in the experiment on UACC-62; > 83 µM (inactive) in the experiment on IGROV-1; > 72.6 µM (inactive) in the experiment with SF-539; 27.3 µM (inactive) in the experiment on HOP-62; > 100 µM (inactive) with NCI-H226; > 100 µM (inactive) with NCI-H23. Moreover, the GI50 in the experiment with MOLT-4 was > 100 µM (inactive); with A498 it was > 93.3 µM (inactive); in the experiment on CAKI-1 it was > 68.4 µM (inactive); with HCC 2998 it was > 100 µM (inactive); in the experiment with NCI-H460 it was 37.3 µM (inactive); in the experiment with KM12, 73.3 µM (inactive). Besides, the GI50 in the experiment on HCT-15 was above 100 µM; in the experiment on A549, 51.9 µM (inactive); with HCT-116, 52 µM (inactive); with K562, 97.1 µM (inactive); in the experiment on SF-268, > 92.7 µM (inactive); in the experiment with RPMI-8226, > 100 µM (inactive). The values for the GI50 in the experiment with SN12C and in the experiment with CCRF-CEM were > 86.5 µM (inactive) and 63.5 µM (inactive), respectively.
Regarding `C=C1C(=O)OC2/C=C(\C(=O)O)CC/C=C(\C)CC(OC(=O)/C=C(\C)CC)C12` (stereo unspecified), the GI50 with UACC-62 was 14.3 µM (inactive); in the experiment with IGROV-1, 19.4 µM (inactive); with SF-539, 15.7 µM (inactive); in the experiment on HOP-62, 20.1 µM (inactive); in the experiment on NCI-H226, 17.9 µM (inactive); with NCI-H23, 16.4 µM (inactive). In addition, the GI50 with MOLT-4 is > 100 µM (inactive); with A498, 17.9 µM (inactive); in the experiment on CAKI-1, 19.3 µM (inactive); in the experiment on HCC 2998 it was 18.6 µM (inactive); in the experiment on NCI-H460, 16.1 µM (inactive); in the experiment on KM12, 14.4 µM (inactive). Further, the GI50 in the experiment with HCT-15 was 14.6 µM; with A549, 16 µM (inactive); in the experiment with HCT-116, 12.9 µM (inactive); in the experiment on K562, > 100 µM (inactive); with SF-268 it was 14.9 µM (inactive); in the experiment with RPMI-8226, 3.45 µM (inactive). For the same molecule, the GI50 in the experiment on SN12C is 17 µM (inactive); with CCRF-CEM it was > 100 µM (inactive).
Consider `CCOC(=O)c1c(NC(=O)Nc2ccccc2)c(C(N)=O)c2n1CCCCC2`, for which the GI50 with UACC-62, in the experiment with IGROV-1, in the experiment with SF-539, in the experiment with HOP-62, with NCI-H226 and in the experiment on NCI-H23 was > 100 µM (inactive) throughout. The GI50 in the experiment with MOLT-4, in the experiment with A498, with CAKI-1, in the experiment with HCC 2998, in the experiment with NCI-H460 and in the experiment with KM12 was > 100 µM (inactive) each time. Besides, the GI50 in the experiment with HCT-15 is above 100 µM; in the experiment with HCT-116, > 100 µM (inactive); with K562 it was > 100 µM (inactive); with SF-268 it was > 100 µM (inactive); with RPMI-8226, > 100 µM (inactive); in the experiment with CCRF-CEM it was > 100 µM (inactive).
In the case of `O=S(=O)(O)c1ccc(/N=N\c2ccc(/N=N\c3ccc(/C=C/c4ccc(/N=[N+](/[O-])c5ccc(/C=C/c6ccc(/N=N/c7ccc(/N=N\c8ccc(S(=O)(=O)O)cc8)cc7)cc6S(=O)(=O)O)c(S(=O)(=O)O)c5)cc4S(=O)(=O)O)c(S(=O)(=O)O)c3)cc2)cc1`, the GI50 is > 100 µM (inactive) with UACC-62; > 100 µM (inactive) in the experiment with IGROV-1; > 100 µM (inactive) in the experiment with SF-539; > 100 µM (inactive) with HOP-62; > 67.8 µM (inactive) in the experiment with NCI-H226; > 100 µM (inactive) in the experiment on NCI-H23. For the same molecule, the GI50 in the experiment with MOLT-4 is > 100 µM (inactive); with A498, > 100 µM (inactive); in the experiment on HCC 2998, > 100 µM (inactive); with NCI-H460 it was > 100 µM (inactive); with KM12, > 100 µM (inactive); in the experiment on HCT-15, above 100 µM. Moreover, the GI50 in the experiment with A549, in the experiment with HCT-116, in the experiment with K562, in the experiment with SF-268, in the experiment with RPMI-8226 and in the experiment with SN12C was > 100 µM (inactive) throughout. Moreover, in the experiment on CCRF-CEM, the GI50 was > 100 µM (inactive).
Turning to `Nc1ccn(C2OC(CO)C(O)C2(F)F)c(=O)n1` (stereo unspecified), the GI50 with UACC-62 is 0.127 µM (active); with IGROV-1 it was 0.301 µM (active); in the experiment with SF-539 it was 0.109 µM (active); with HOP-62 it was 0.0867 µM (active); with NCI-H226 it was 0.706 µM (active); in the experiment with NCI-H23, 0.0391 µM (active). In addition, the GI50 with MOLT-4 is 0.091 µM (active); in the experiment with A498, 0.186 µM (active); with CAKI-1, 0.108 µM (active); with HCC 2998, 0.728 µM (active); in the experiment on NCI-H460, 0.0504 µM (active); with KM12 it was 39.4 µM (inactive). Further, the GI50 was 0.735 µM in the experiment on HCT-15; 0.055 µM (active) in the experiment on A549; 0.0579 µM (active) in the experiment with HCT-116; 0.325 µM (active) in the experiment on K562; 0.226 µM (active) in the experiment with SF-268; 0.281 µM (active) in the experiment on RPMI-8226. Also, the GI50 in the experiment on SN12C is 0.261 µM (active).
In the case of `CCOP(=O)(COCCn1nc(Br)c(=O)[nH]c1=O)OCC`, the GI50 with IGROV-1, with SF-539, in the experiment with HOP-62, with NCI-H226, in the experiment with NCI-H23 and in the experiment on MOLT-4 was > 100 µM (inactive) throughout. Besides, the GI50 is > 100 µM (inactive) in the experiment with A498; > 100 µM (inactive) in the experiment on CAKI-1; > 100 µM (inactive) with HCC 2998; > 100 µM (inactive) in the experiment on NCI-H460; > 100 µM (inactive) in the experiment with KM12; above 100 µM in the experiment with HCT-15. Also, the GI50 in the experiment with A549, with K562, in the experiment with SF-268, with RPMI-8226, in the experiment on SN12C and in the experiment on CCRF-CEM was > 100 µM (inactive) in each case.
In the case of `CC(=O)OC[C@H]1[C@@H]2C(CC[C@]13CO3)OC(=O)CC(C)[C@]2(C)CCc1ccoc1` (stereo partly specified), the GI50 in the experiment with UACC-62, with IGROV-1, with SF-539, in the experiment with HOP-62, with NCI-H226 and in the experiment on NCI-H23 was > 100 µM (inactive) throughout. Further, the GI50 in the experiment on MOLT-4, with A498, in the experiment on CAKI-1, with HCC 2998, in the experiment with NCI-H460 and in the experiment with KM12 was > 100 µM (inactive) each time. Also, the GI50 in the experiment with HCT-15 is above 100 µM; in the experiment with A549, > 100 µM (inactive); in the experiment on HCT-116, > 100 µM (inactive); in the experiment with K562, > 100 µM (inactive); in the experiment on SF-268, > 100 µM (inactive); with SN12C, > 100 µM (inactive). Further, the GI50 in the experiment on CCRF-CEM was > 100 µM (inactive).
For `O=S(=O)(c1ccccc1)C1CC(c2nc3ccccc3[nH]2)=NO1` (stereo unspecified), the GI50 is > 100 µM (inactive) in the experiment with UACC-62; 16.6 µM (inactive) with IGROV-1; 51.4 µM (inactive) with SF-539; > 100 µM (inactive) in the experiment with HOP-62; > 100 µM (inactive) with NCI-H226; > 100 µM (inactive) in the experiment with NCI-H23. For the same molecule, the GI50 is 39.1 µM (inactive) in the experiment with MOLT-4; 43 µM (inactive) in the experiment with A498; 97.7 µM (inactive) in the experiment on CAKI-1; > 100 µM (inactive) with HCC 2998; 50.1 µM (inactive) in the experiment on NCI-H460; 51.3 µM with HCT-15. The GI50 in the experiment on A549 was > 100 µM (inactive); in the experiment on HCT-116 it was 52.6 µM (inactive); in the experiment with K562, 31.6 µM (inactive); in the experiment with SF-268, > 100 µM (inactive); in the experiment with RPMI-8226, 28.1 µM (inactive); in the experiment on SN12C, > 100 µM (inactive). Besides, the GI50 in the experiment with CCRF-CEM was 21.8 µM (inactive).
